Laboratory results reported in article PMC11558128 (Advanced Science, 2024).
Positions of bridges follow the written chain, without caps; N, C: chain ends. Residues, ends and D or L forms follow the SMILES beside them.

Experiments:
rKv4.2 V278A = target: T1, rKv4.2 V278A (Rattus norvegicus, UniProt Q63881, V278A); experiment: cell-based; conditions: mean ± SEM
T1 construct: expressed in transfected cells; host or cells: HEK293T
T1 sequence (Q63881 1-630 V278A): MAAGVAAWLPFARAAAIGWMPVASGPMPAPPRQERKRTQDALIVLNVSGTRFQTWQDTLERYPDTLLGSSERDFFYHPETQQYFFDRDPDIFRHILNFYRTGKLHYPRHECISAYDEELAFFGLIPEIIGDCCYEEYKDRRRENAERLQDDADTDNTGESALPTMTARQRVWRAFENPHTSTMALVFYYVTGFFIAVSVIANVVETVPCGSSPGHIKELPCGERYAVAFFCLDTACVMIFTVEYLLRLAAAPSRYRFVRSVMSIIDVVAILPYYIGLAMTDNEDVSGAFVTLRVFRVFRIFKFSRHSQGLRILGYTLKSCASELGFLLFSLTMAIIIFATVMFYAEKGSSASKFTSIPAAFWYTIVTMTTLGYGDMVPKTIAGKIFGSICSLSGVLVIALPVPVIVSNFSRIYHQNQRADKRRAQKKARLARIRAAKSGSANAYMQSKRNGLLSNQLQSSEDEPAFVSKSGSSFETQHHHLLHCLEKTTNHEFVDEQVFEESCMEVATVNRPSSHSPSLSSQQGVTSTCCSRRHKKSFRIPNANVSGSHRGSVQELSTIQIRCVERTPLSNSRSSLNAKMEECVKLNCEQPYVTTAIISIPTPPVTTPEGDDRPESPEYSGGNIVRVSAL

ICR mice [1] = experiment: Rotarod test; assay type: in vivo, mouse; conditions: 2 mg kg-1 i.p.; vs saline; n = 5-6, p > 0.9999
Protocol: In Vivo Safety Evaluation: Rotarod Test: ICR mice (weight 18–20 g, 6–8 weeks, both sex) were trained on a rotarod at a constant speed of 20 rpm for 8 min per day. […] On the 5th day, the remaining mice were randomly divided into two groups: Saline (3 males and 2 females) and 2 mg kg^−1 mGpTx1‐SA (3 males and 3 females). All groups were administered intraperitoneally and allowed 20 minutes for the drug to take effect before behavioral tests were conducted. The total motor time of the animals during 300 s was recorded for analysis.

ICR mice [2] = experiment: Surface electrocardiogram (ECG) recording in ICR mice; assay type: in vivo, mouse
Protocol: Surface Electrocardiographic (ECG) Recording: ICR mice (weight 18–20 g, 6–8 weeks, both sex) were lightly anesthetized with 3% halothane for Surface electrocardiograms (ECG), which were recorded by placing dry electrodes carefully wrapped around each of the mouse's four limbs. The data of physiological effects of intravenous administration of 0.3 mg kg^−1 mGpTx1 (4 males and 4 females) or 2 mg kg^−1 mGpTx1‐SA (3 males and 2 females) for 5 min were collected by PowerLab 2/28 and LabChart 8 (AD Instruments, Bella Vista, Australia) and analyzed standard ECG parameters by along with its accompanying ECG analysis plug‐in. For each mouse, the data of 8 cardiac cycles before and after administration were averaged for analysis.

ICR mice [3] = experiment: Small intestinal propulsion test; assay type: in vivo, mouse; conditions: 2 mg kg-1 i.p.; vs saline; n = 4, p = 0.3429
Protocol: Small Intestinal Propulsion Test: ICR mice (weight 18–20 g, 6–8 weeks, both sex) were subjected to a 24‐hour fasting period to ensure gastrointestinal emptying. Subsequently, the mice were randomly assigned to one of two groups: Saline (2 males and 2 females) and 2 mg kg^−1 mGpTx1‐SA (2 males and 2 females). All groups received intraperitoneal administration of their respective substances and were allowed 20 minutes for the drugs to take effect. Following drug administration, each mouse received a pre‐prepared nutritive semi‐solid paste (10 g of sodium carboxymethylcellulose, 16 g of milk powder, 8 g of sucrose, 8 g of starch, and 5 g of activated charcoal, stirred well in 250 mL of ddH2O) via gavage (0.5 mL per 20 g). After 20 min, the mice were euthanized, and their small intestines were carefully removed. The distance from the pylorus to the ileum was measured along the full length of the small intestine. Additionally, the distance from the pylorus to the front of the black semi‐solid paste was measured. Small intestinal propulsion rate (%) = length of carbon paste propulsion (cm) × 100% / total length of small intestine (cm).

[4] = tested on: native Nav channels of rat primary cardiomyocytes; conditions: 5 µM; n = 5
[5] = tested on: acutely isolated rat cardiomyocytes; conditions: 5 µM; for effect on action potential duration (APD): n = 5-6
C57BL/6 mice = experiment: Open field test; assay type: in vivo, mouse; conditions: 2 mg kg-1 i.p.; 2 min; vs saline; n = 4, p = 0.2000
Protocol: Open Field Test: The C57BL/6 mice (weight 18–20 g, 6–8 weeks, both sex) were randomly assigned to one of two groups: Saline (2 males and 2 females) and 2 mg kg^−1 mGpTx1‐SA (2 males and 2 females). All mice received intraperitoneal administration of the respective substances and were allowed 20 min for the drugs to take effect. Following drug administration, the mice were individually placed in square transparent chambers (50 × 50 cm). They were allowed to explore freely under normal light. The movements and trajectories of the mice were recorded using video and computer systems over a 2‐minute period for subsequent analysis.

ICR mice [6] = experiment: Forced swimming test; assay type: in vivo, mouse; conditions: 2 mg kg-1 i.p.; vs saline; n = 5, p = 0.8413
Protocol: Forced Swimming Test: ICR mice (weight 18–20 g, 6–8 weeks, both sex) were subjected to forced swimming training for 8 min per day over a span of 4 days. […] On the 5th day, the remaining mice were randomly assigned to one of two groups: Saline (3 males and 2 females) and the 2 mg kg^−1 mGpTx1‐SA (3 males and 2 females). All groups received intraperitoneal administration and were allowed 20 min for the drug to take effect before behavioral tests commenced. Swimming time was recorded for a duration of 4 min within a 6‐minute timeframe following drug administration.

## CC[C@H](C)[C@H](NC(=O)[C@H](CCC(=O)O)NC(=O)[C@H](Cc1ccc(O)cc1)NC(=O)[C@H](CCCCN)NC(=O)[C@@H]1CSSC[C@@H]2NC(=O)[C@H](CCC(N)=O)NC(=O)[C@H](CC(=O)O)NC(=O)[C@H](CC(N)=O)NC(=O)[C@H](CO)NC(=O)[C@@H]3CCCN3C(=O)[C@H](CC(N)=O)NC(=O)[C@@H]3CSSC[C@H](NC(=O)[C@H](C(C)C)NC(=O)[C@H](CC(C)C)NC(=O)[C@H](CC(N)=O)NC(=O)[C@H](CO)NC(=O)[C@H](CO)NC(=O)[C@H](CCCCN)NC(=O)[C@H](CSSC[C@H](NC(=O)[C@@H](N)CCC(=O)O)C(=O)N[C@@H](CC(C)C)C(=O)NCC(=O)N[C@@H](Cc4ccccc4)C(=O)NCC(=O)N[C@@H](CCCCN)C(=O)NCC(=O)N3)NC2=O)C(=O)N[C@@H](CO)C(=O)N[C@@H](CCCNC(=N)N)C(=O)N[C@@H](CCCCN)C(=O)N[C@@H](Cc2c[nH]cn2)C(=O)N[C@@H](CCCNC(=N)N)C(=O)N[C@@H](Cc2c[nH]c3ccccc23)C(=O)N1)C(N)=O [HNTX-IV]
rKv4.2 V278A
  IC50: 182 ± 50 nM

## CC(C)C[C@@H]1NC(=O)[C@H](Cc2c[nH]c3ccccc23)NC(=O)[C@H](Cc2ccc(O)cc2)NC(=O)[C@H](CCCNC(=N)N)NC(=O)[C@@H](NC(=O)[C@@H](N)CCC(=O)O)CSSC[C@@H]2NC(=O)[C@@H]3CSSC[C@@H](C(=O)N[C@H](C(=O)N[C@@H](Cc4c[nH]c5ccccc45)C(=O)N[C@@H](CC(=O)O)C(=O)N[C@@H](Cc4c[nH]c5ccccc45)C(=O)N[C@H](C(=O)N[C@@H](Cc4ccccc4)C(N)=O)[C@@H](C)O)C(C)C)NC(=O)[C@H](Cc4c[nH]c5ccccc45)NC(=O)CNC(=O)[C@H](Cc4c[nH]cn4)NC(=O)[C@H](CCCCN)NC(=O)[C@@H]4CCCN4C(=O)[C@H](CO)NC(=O)[C@H](CSSC[C@H](NC(=O)[C@H]([C@@H](C)O)NC(=O)CNC1=O)C(=O)N[C@@H](CO)C(=O)N[C@@H](CCCCN)C(=O)N[C@@H]([C@@H](C)O)C(=O)NCC(=O)N[C@@H](CC(=O)O)C(=O)N3)NC(=O)[C@H](CO)NC(=O)[C@H](CC(C)C)NC(=O)[C@H](Cc1c[nH]cn1)NC(=O)[C@H](CO)NC2=O [HNTX-VIIa] (H-ECRYWLGTCSKTGDCCSHLSCSPKHGWCVWDWTF-NH2; disulfide 2-16, 9-21, 15-28)
rKv4.2 V278A
  IC50: 53 ± 6 nM

## CC[C@H](C)[C@@H]1NC(=O)[C@@H]2CSSC[C@@H]3NC(=O)[C@H](C(C)C)NC(=O)[C@H](CC(C)C)NC(=O)[C@H](CC(N)=O)NC(=O)[C@@H]4CCCN4C(=O)[C@H](CCCNC(=N)N)NC(=O)[C@H](CSSC[C@H](NC(=O)[C@@H](N)CC(=O)O)C(=O)N[C@@H](CC(C)C)C(=O)NCC(=O)N[C@@H](C)C(=O)N[C@@H](Cc4ccccc4)C(=O)N[C@@H](CCCNC(=N)N)C(=O)N[C@@H](CCCCN)C(=O)N2)NC(=O)[C@H](CSSC[C@@H](C(=O)N[C@@H](CCCCN)C(=O)N[C@@H](Cc2ccc(O)cc2)C(=O)N[C@H](C(=O)N[C@@H](Cc2ccccc2)C(N)=O)C(C)C)NC(=O)[C@H](Cc2c[nH]c4ccccc24)NC(=O)[C@H](CCCNC(=N)N)NC(=O)[C@H](Cc2c[nH]cn2)NC(=O)[C@H](C)NC(=O)[C@H](CO)NC(=O)[C@H](CO)NC3=O)NC(=O)[C@H](CCCCN)NC(=O)[C@H](CC(=O)O)NC(=O)[C@H](CC(N)=O)NC(=O)[C@H](CC(=O)O)NC(=O)[C@@H]2CCCN2C1=O [mGpTx1-SA] (H-DCLGAFRKCIPDNDKCCRPNLVCSSAHRWCKYVF-NH2; disulfide 2-17, 9-23, 16-30)
ICR mice [1]
  balance time of mice on the rotarod test: did not affect
ICR mice [2]; 2 mg kg-1, tail vein, control 0.13 ± 0.01 s, n = 5, p = 0.3229
  RR interval: 0.13 ± 0.01 s
ICR mice [2]; 2 mg kg-1, tail vein, control 478.2 ± 24.3, n = 5, p = 0.8856
  heart rate: 475.3 ± 24.7
ICR mice [2]; 2 mg kg-1, tail vein, n = 5
  effect on the ECGs: no effect
ICR mice [3]
  small intestinal propulsion: no effect
[4]
  inhibition of Nav currents in the primary cardiomyocytes: did not inhibit
[5]
  effect on AP amplitude: no significant changes
  effect on resting membrane potential (RMP): no significant changes
  effect on action potential duration (APD): no effect
C57BL/6 mice
  exploratory and locomotor behavior, open-field test: did not influence significantly
ICR mice [6]
  time spent on swimming: did not affect

## CC[C@H](C)[C@@H]1NC(=O)[C@@H]2CSSC[C@@H]3NC(=O)[C@H](C(C)C)NC(=O)[C@H](CC(C)C)NC(=O)[C@H](CC(N)=O)NC(=O)[C@@H]4CCCN4C(=O)[C@H](CCCNC(=N)N)NC(=O)[C@H](CSSC[C@H](NC(=O)[C@@H](N)CC(=O)O)C(=O)N[C@@H](CC(C)C)C(=O)NCC(=O)N[C@@H](C)C(=O)N[C@@H](Cc4ccccc4)C(=O)N[C@@H](CCCNC(=N)N)C(=O)N[C@@H](CCCCN)C(=O)N2)NC(=O)[C@H](CSSC[C@@H](C(=O)N[C@@H](CCCCN)C(=O)N[C@@H](Cc2ccc(O)cc2)C(=O)N[C@H](C(=O)N[C@@H](Cc2ccccc2)C(N)=O)C(C)C)NC(=O)[C@H](Cc2c[nH]c4ccccc24)NC(=O)[C@H](CCCNC(=N)N)NC(=O)[C@H](Cc2cnc[nH]2)NC(=O)[C@H](CC(C)C)NC(=O)[C@H](CCCNC(=N)N)NC(=O)[C@H](CO)NC3=O)NC(=O)[C@H](CCCCN)NC(=O)[C@H](CC(=O)O)NC(=O)[C@H](CC(N)=O)NC(=O)[C@H](CC(=O)O)NC(=O)[C@@H]2CCCN2C1=O [mGpTx1] (H-DCLGAFRKCIPDNDKCCRPNLVCSRLHRWCKYVF-NH2; disulfide 2-17, 9-23, 16-30)
ICR mice [2]; 0.3 mg kg-1, tail vein, control 0.07 ± 0.01 s, n = 8, p < 0.001
  QTc interval: 0.12 ± 0.01 s
ICR mice [2]; 0.3 mg kg-1, tail vein, control 0.12 ± 0.01 s, n = 8, p = 0.0088
  RR interval: 0.14 ± 0.01 s
ICR mice [2]; 0.3 mg kg-1, tail vein, control 0.20 ± 0.03 mV, n = 8, p = 0.0138
  T-wave amplitude: 0.09 ± 0.02 mV
ICR mice [2]; 0.3 mg kg-1, tail vein, control 508.4 ± 24.5, n = 8, p = 0.0045
  heart rate: 451.6 ± 27.1
ICR mice [2]; 0.3 mg kg-1, tail vein, n = 8
  effect on the ECGs: notably altered the shape of the ECGs
[5]
  effect on AP amplitude: no significant changes
  effect on resting membrane potential (RMP): no significant changes
  effect on action potential duration (APD): significantly prolonged
[5]; before treatment 51.7 ± 14.6 ms, n = 5, p = 0.0289
  APD at 90% repolarization (APD 90): 137.1 ± 36.3 ms
rKv4.2 V278A
  IC50: 2850 ± 1310 nM
